Legend:
[1] = molecular target: T1, 5-hydroxytryptamine receptor 2C (Homo sapiens, UniProt P28335); assay: Agonist activity at unedited 5-HT2C receptor (unknown origin) expressed in HEK293 cells assessed as [3H]inositol phosphate accumulation after 2 hrs by scintillation counting; format: functional, cell-based
T1 sequence (P28335 whole entry): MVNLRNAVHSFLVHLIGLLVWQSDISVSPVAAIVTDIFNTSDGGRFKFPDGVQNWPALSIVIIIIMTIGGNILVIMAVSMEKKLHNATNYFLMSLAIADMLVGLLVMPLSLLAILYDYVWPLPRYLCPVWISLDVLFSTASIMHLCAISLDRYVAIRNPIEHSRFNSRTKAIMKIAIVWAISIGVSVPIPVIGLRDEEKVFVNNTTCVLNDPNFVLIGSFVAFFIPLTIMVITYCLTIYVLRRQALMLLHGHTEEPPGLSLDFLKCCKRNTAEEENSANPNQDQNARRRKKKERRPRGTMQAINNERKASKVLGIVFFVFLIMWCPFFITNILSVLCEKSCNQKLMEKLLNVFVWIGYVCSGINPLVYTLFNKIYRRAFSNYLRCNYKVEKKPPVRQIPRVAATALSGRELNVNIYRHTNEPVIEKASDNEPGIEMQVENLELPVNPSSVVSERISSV

[2] = molecular target: T2, 5-hydroxytryptamine receptor 2C (Homo sapiens) (UniProt P28335); assay: Agonist activity at unedited 5-HT2C receptor (unknown origin) expressed in HEK293 cells assessed as [3H]inositol phosphate accumulation at 10 uM after 2 hrs by scintillation counting relative to serotonin; format: functional, cell-based
T2 sequence (whole entry): T1 sequence (P28335 whole entry)

[3] = molecular target: T3, 5-hydroxytryptamine receptor 2B (Homo sapiens, UniProt P41595); assay: Agonist activity at 5-HT2B receptor (unknown origin) expressed in HEK293 cells assessed as [3H]inositol phosphate accumulation after 2 hrs by scintillation counting; format: cell-based
T3 sequence (P41595 whole entry): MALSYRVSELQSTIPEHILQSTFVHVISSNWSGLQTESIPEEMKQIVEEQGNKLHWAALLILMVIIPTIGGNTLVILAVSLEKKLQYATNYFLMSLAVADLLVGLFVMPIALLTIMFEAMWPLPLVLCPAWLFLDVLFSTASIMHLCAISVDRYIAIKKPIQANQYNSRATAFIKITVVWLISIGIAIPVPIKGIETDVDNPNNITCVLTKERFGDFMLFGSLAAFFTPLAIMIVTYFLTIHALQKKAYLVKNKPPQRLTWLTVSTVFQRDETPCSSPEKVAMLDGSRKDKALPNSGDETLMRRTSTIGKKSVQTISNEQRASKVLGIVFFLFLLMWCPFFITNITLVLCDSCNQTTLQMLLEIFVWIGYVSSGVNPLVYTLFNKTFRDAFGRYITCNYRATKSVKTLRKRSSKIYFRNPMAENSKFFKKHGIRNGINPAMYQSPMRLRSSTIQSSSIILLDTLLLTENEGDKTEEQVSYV

5-HT2B receptor = 5-HT2B receptor (Homo sapiens, UniProt P41595); assay: Agonist activity at 5-HT2B receptor (unknown origin) expressed in HEK293 cells assessed as [3H]inositol phosphate accumulation at 10 uM after 2 hrs by scintillation counting relative to serotonin; format: cell-based; details: HEK293 cells expressing 5-HT2B receptor
5-HT2B receptor, sequence (P41595 whole entry): as above

[4] = molecular target: T1, 5-hydroxytryptamine receptor 2C; assay: Displacement of [125I]DOI from recombinant human 5-HT2C receptor expressed in HEK293 cell membranes after 1 hr by scintillation counting
[5] = molecular target: T3, 5-hydroxytryptamine receptor 2B; assay: Displacement of [125I]DOI from recombinant human 5-HT2B receptor expressed in HEK293 cell membranes after 1 hr by scintillation counting
[6] = molecular target: T4, 5-hydroxytryptamine receptor 2A (Homo sapiens, UniProt P28223); assay: Agonist activity at 5-HT2A receptor (unknown origin) expressed in HEK293 cells assessed as [3H]inositol phosphate accumulation after 2 hrs by scintillation counting; format: cell-based
T4 sequence (P28223 whole entry): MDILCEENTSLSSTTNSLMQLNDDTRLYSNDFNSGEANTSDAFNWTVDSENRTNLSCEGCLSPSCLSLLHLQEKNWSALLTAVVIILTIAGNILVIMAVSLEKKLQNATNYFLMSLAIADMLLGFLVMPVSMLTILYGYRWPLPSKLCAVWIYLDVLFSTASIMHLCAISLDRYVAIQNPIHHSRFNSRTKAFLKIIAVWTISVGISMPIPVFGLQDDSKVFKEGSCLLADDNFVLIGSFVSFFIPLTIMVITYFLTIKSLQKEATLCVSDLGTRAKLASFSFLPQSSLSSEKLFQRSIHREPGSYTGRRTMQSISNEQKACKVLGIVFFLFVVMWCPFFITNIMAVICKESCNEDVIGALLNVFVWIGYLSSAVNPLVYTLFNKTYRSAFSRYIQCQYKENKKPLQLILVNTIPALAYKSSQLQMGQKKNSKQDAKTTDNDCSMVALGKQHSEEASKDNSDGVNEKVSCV

5-HT2A receptor = 5-HT2A receptor (Homo sapiens, UniProt P28223); assay: Agonist activity at 5-HT2A receptor (unknown origin) expressed in HEK293 cells assessed as [3H]inositol phosphate accumulation at 10 uM after 2 hrs by scintillation counting relative to serotonin; format: cell-based; details: HEK293 cells expressing 5-HT2A receptor
5-HT2A receptor, sequence (P28223 whole entry): as above

[7] = molecular target: T4, 5-hydroxytryptamine receptor 2A; assay: Displacement of [125I]DOI from recombinant human 5-HT2A receptor expressed in HEK293 cell membranes after 1 hr by scintillation counting
Rattus norvegicus [8] = assay: Antiobesity activity in Sprague-Dawley rat assessed as reduction in food intake at 1 mg/kg, po administered via oral gavage 30 mins prior to food presentation measured 60 mins post drug administration; format: functional; design: scale not given: the % may be the effect or the level left
Rattus norvegicus [9] = assay: Antiobesity activity in Sprague-Dawley rat assessed as reduction in food intake at 3 mg/kg, po administered via oral gavage 30 mins prior to food presentation measured 60 mins post drug administration; format: functional; design: scale not given: the % may be the effect or the level left
Rattus norvegicus [10] = assay: Antiobesity activity in Sprague-Dawley rat assessed as reduction in food intake at 10 mg/kg, po administered via oral gavage 30 mins prior to food presentation measured 60 mins post drug administration; format: functional; design: scale not given: the % may be the effect or the level left
Rattus norvegicus [11] = assay: Antiobesity activity in Sprague-Dawley rat assessed as reduction in food intake at 5 mg/kg, po administered via oral gavage 30 mins prior to food presentation measured 60 mins post drug administration; format: functional; design: scale not given: the % may be the effect or the level left

Row | Compound | EC50 ([1]; read-out: pEC50 (converted)) [nM] | Emax [2] [%] | EC50 [3] [nM] | Emax at 2 h, 10 µM (5-HT2B receptor) [%] | further results
1 | COc1cccc2c1CC[C@@H]1CNCCCN21 | 1000 | 92 | 398 | 74 | –
2 | COc1ccc2c(c1)CCC1CNCCN21 (stereo unspecified) | 251 | 101 | 794 | 57 | –
3 | c1ccc(Oc2cccc3c2CCC2CNCCN32)cc1 (stereo unspecified) | 100 | 112 | 6310 | 94 | –
4 | Fc1ccc2c(c1)N1CCNCC1CC2 (stereo unspecified) | 0.794 | 100 | 31.6 | 38 | –
5 | Fc1ccc2c(c1)CCC1CNCCN21 (stereo unspecified) | 3.16 | 96 | 126 | 44 | –
6 | COc1cc2c(cc1Cl)N1CCCNC[C@H]1CC2 | 39.8 | 91 | 158 | 23 | –
7 | c1ccc2c(c1)CC[C@@H]1CNCCN21 | 2.51 | 97 | 63.1 | 28 | –
8 | CC1(C)CC2CNCCN2c2ccccc21 (stereo unspecified) | 1260 | 84 | > 10000 | – | –
9 | Fc1ccc2c(c1Cl)N1CCNCC1CC2 (stereo unspecified) | 6.31 | 94 | 2 | 12 | –
10 | CC1(C)Cc2ccccc2N2CCNCC21 (stereo unspecified) | > 1000 | – | > 1000 | – | –
11 | CCCc1cccc2c1CCC1CNCCN21 (stereo unspecified) | 0.2 | 101 | 200 | 80 | Ki [4]: 0.398 nM; Ki [5]: 25.1 nM; EC50 [6]: 501 nM; Emax at 2 h, 10 µM (5-HT2A receptor): 104%; Ki [7]: 6.31 nM; Activity (Rattus norvegicus [8]): 66%; Activity (Rattus norvegicus [9]): 99%
12 | c1cc(C2CCC2)c2c(c1)N1CCNCC1CC2 (stereo unspecified) | 3.16 | 110 | 39.8 | 112 | –
13 | COc1ccc2c(c1Cl)N1CCCNC[C@H]1CC2 | 158 | 72 | 7.94 | 7 | –
14 | c1ccc2c(c1)CCC1CCNCCCN21 (stereo unspecified) | – | 99 | 1000 | 60 | EC50 ([1]; read-out: EC50): 130 nM
15 | COc1cccc2c1N1CCCNC[C@H]1CC2 | 31.6 | 17 | 100 | 55 | –
16 | CCCc1ccc2c(c1)N1CCNCC1CC2 (stereo unspecified) | 63.1 | 87 | 200 | 19 | –
17 | COc1ccc2c(c1)CC[C@@H]1CNCCCN21 | 631 | 80 | 1260 | 76 | –
18 | c1ccc(Cc2cccc3c2CCC2CNCCN32)cc1 (stereo unspecified) | 1.58 | 104 | 2510 | 20 | Ki [4]: 0.631 nM; Ki [5]: 39.8 nM; EC50 [6]: 126 nM; Emax at 2 h, 10 µM (5-HT2A receptor): 85%; Ki [7]: 1.58 nM
19 | Clc1cccc2c1N1CCCNCCC1CC2 (stereo unspecified) | 25.1 | 85 | 100 | 20 | –
20 | Clc1ccc2c(c1)CCC1CCNCCCN21 (stereo unspecified) | 200 | 83 | 631 | 71 | –
21 | Cc1cccc2c1CCC1CNCCN21 (stereo unspecified) | 2 | 108 | 31.6 | 65 | –

Row | Compound | EC50 ([1]; read-out: pEC50 (converted)) [nM] | Emax [2] [%] | EC50 [3] [nM] | Emax at 2 h, 10 µM (5-HT2B receptor) [%] | further results
22 | c1cc(OC2CCC2)c2c(c1)N1CCNCC1CC2 (stereo unspecified) | 20 | 98 | 794 | 9 | –
23 | CCCc1ccc2c(c1)CCC1CNCCN21 (stereo unspecified) | 20 | 100 | 631 | 9 | –
24 | c1ccc2c(c1)CC[C@H]1CCNCCCN21 | > 10000 | – | > 10000 | – | –
25 | c1ccc2c(c1)CC[C@@H]1CCNCCCN21 | 63.1 | 86 | 501 | 53 | –
26 | c1cc(CC2CCC2)c2c(c1)N1CCCNCC1CC2 (stereo unspecified) | 126 | 116 | > 1000 | – | –
27 | Fc1ccc2c(c1Cc1ccccc1)CCC1CNCCN21 (stereo unspecified) | 1 | 102 | 631 | 32 | Ki [4]: 0.398 nM; Ki [5]: 12.6 nM; EC50 [6]: 100 nM; Emax at 2 h, 10 µM (5-HT2A receptor): 114%; Ki [7]: 0.631 nM
28 | COc1cc2c(c(Cl)c1Cl)N1CCCNC[C@H]1CC2 | 10 | 80 | – | < 5 | –
29 | COc1cc2c(cc1Cl)CC[C@@H]1CNCCCN21 | 3.98 | 85 | 63.1 | 84 | –
30 | COc1cc2c(cc1Cc1ccccc1)CC[C@@H]1CNCCCN21 | > 1000 | – | > 1000 | – | –
31 | COCc1cccc2c1CCC1CNCCN21 (stereo unspecified) | 20 | 113 | 1260 | 77 | –
32 | Fc1ccc2c(c1)CC[C@@H]1CNCCCN21 | 25.1 | 94 | 631 | 59 | –
33 | Clc1cccc(N2CCNCC2)c1 [CHLOROPHENYLPIPERAZINE] | – | 90 | – | 22 | Emax at 2 h, 10 µM (5-HT2A receptor): 12%
34 | COc1ccc2c(c1)N1CCCNC[C@H]1CC2 | 79.4 | 95 | 631 | 37 | –
35 | c1cc(Cc2ccc3c(c2)OCO3)c2c(c1)N1CCNCC1CC2 (stereo unspecified) | 6.31 | 100 | 3980 | 26 | Ki [4]: 0.794 nM; Ki [5]: 126 nM; EC50 [6]: 200 nM; Emax at 2 h, 10 µM (5-HT2A receptor): 64%; Ki [7]: 1.58 nM
36 | c1cc(CC2CCC2)c2c(c1)N1CCNCC1CC2 (stereo unspecified) | 3.16 | 106 | 2000 | 31 | Ki [4]: 0.631 nM; Ki [5]: 63.1 nM; EC50 [6]: 2000 nM; Emax at 2 h, 10 µM (5-HT2A receptor): 135%; Ki [7]: 7.94 nM; Activity (Rattus norvegicus [8]): 27%; Activity (Rattus norvegicus [10]): 99%; Activity (Rattus norvegicus [11]): 63%
37 | CC1(C)Cc2cccc(Cl)c2N2CCNCC21 (stereo unspecified) | > 10000 | – | 100 | 84 | Ki [4]: 794 nM; Ki [5]: 6.31 nM; EC50 [6]: > 10000 nM; Ki [7]: 2000 nM
38 | Cc1cccc2c1N1CCNCC1CC2 (stereo unspecified) | 63.1 | 86 | 50.1 | 10 | –
39 | CCSc1cccc2c1CCC1CNCCN21 (stereo unspecified) | 0.316 | 101 | 79.4 | 46 | –
40 | Fc1ccc2c(c1Cc1ccccc1)CC[C@@H]1CNCCCN21 | 20 | 108 | 7940 | 71 | –
41 | c1ccc(-c2cccc3c2CCC2CNCCN32)cc1 (stereo unspecified) | 126 | 97 | 2510 | 72 | –
42 | c1csc(Cc2cccc3c2CCC2CNCCN32)c1 (stereo unspecified) | 0.794 | 106 | 398 | 24 | Ki [4]: 0.316 nM; Ki [5]: 25.1 nM; EC50 [6]: 79.4 nM; Emax at 2 h, 10 µM (5-HT2A receptor): 94%; Ki [7]: 25.1 nM

— ChEMBL document CHEMBL3871286, “Tetrahydroquinoline-based tricyclic amines as potent and selective agonists of the 5-HT2C receptor” (Bioorg Med Chem Lett, 2016)
